# Experimental data reported in patent US20220341922A1, “FLUORESCENT PROBE FOR USE IN DETECTION OF BRAIN TUMOR” (The University of Tokyo, priority 2019, published 2022).
# Tests used:
# [1] = tested on: fresh glioblastoma and peritumoral tissue; experiment: Screening by fluorescent probe on fresh glioblastoma and peritumoral tissue specimens; settings: for tumor-specific fluorescent labeling as compared with the surrounding tissue: 50 μM probe solution in PBS, 0.5% v/v DMSO, Ex 465 nm, Em 515 nm, FIGS. 1 and 2; for fluorescence intensity in the tumor: 50 μM probe solution
# Method: The fluorescent intensity of fresh glioblastoma and peritumoral tissue were compared using the fluorescent probes YK190, YK213, YK19, and YK281 synthesized in Example 1. As a comparative example, hydroxymethyl rhodamine green (HRMG) having no dipeptide site was used.
# 50 μM probe solutions (200 μL) in PBS, containing 0.5% v/v DMSO as a co-solvent was added dropwise to each specimen, and the fluorescence intensity was measured over time using Maestro In Vivo Imaging System Ex. • Excitation wavelength: 465 nm • Emission wavelength: 515 nm
# cathepsin D [2] = target: T1, cathepsin D (Homo sapiens, UniProt P07339); experiment: Reaction of fluorescent probe with purified enzyme; assay type: biochemical; settings: FIG. 4
# calpain 1 [3] = target: T2, calpain 1 (Homo sapiens, UniProt P07384); experiment: Reaction of fluorescent probe with purified enzyme; assay type: biochemical; settings: purified calpain 1; FIG. 4
# T2 sequence (P07384 1-714): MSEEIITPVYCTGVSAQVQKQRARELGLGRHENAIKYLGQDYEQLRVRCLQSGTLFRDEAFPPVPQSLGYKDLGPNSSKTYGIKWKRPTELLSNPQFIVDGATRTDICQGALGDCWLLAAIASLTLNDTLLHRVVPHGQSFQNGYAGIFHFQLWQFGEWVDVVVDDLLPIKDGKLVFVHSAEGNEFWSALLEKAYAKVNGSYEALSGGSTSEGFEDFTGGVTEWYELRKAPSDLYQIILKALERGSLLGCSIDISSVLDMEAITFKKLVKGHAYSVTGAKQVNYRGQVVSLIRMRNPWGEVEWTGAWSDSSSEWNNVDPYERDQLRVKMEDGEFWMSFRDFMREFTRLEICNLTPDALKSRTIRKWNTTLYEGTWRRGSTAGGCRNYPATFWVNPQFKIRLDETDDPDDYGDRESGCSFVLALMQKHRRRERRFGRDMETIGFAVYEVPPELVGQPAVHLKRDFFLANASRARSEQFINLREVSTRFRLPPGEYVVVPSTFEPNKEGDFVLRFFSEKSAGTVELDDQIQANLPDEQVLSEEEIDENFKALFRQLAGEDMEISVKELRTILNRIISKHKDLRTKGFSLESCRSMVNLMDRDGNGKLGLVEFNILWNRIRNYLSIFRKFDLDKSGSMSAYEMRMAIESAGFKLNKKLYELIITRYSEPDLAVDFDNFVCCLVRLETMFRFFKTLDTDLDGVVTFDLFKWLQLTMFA
# T2 sequence (P04632 1-268 partner): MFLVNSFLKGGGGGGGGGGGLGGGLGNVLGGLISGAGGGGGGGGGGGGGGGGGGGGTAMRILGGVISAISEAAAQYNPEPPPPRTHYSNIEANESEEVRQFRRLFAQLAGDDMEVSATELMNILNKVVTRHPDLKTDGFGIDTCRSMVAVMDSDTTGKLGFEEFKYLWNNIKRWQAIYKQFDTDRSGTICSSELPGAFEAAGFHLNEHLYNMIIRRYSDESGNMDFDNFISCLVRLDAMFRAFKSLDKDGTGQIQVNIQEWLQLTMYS
# [4] = tested on: calpain 1 knocked down in U87 glioblastoma cell line; experiment: Verification by siRNA knock-down using U87 cell line; assay type: cell-based; settings: calpain 1 knocked down by siRNA, 48 hours culture; FIG. 5
# Method: (§1) Calpain 1 and cathepsin D were knocked down by siRNA in a cell line, and a reaction with the fluorescent probe YK190 was observed. The experiment was conducted in accordance with the procedure shown below.
# (§2) Transfection of U87, a glioblastoma cell line, was done with siRNA utilizing lipofectamine. A reaction with a fluorescent probe was observed after culture for 48 hours.
# [5] = tested on: cathepsin D knocked down in U87 glioblastoma cell line; experiment: as above; assay type: cell-based; settings: 48 hours culture, FIG. 5
# Method: as §1, §2
# calpain 1 [6] = target: T2, calpain 1; experiment: Change in fluorescence intensity of candidate enzymes using inhibitors; assay type: biochemical; settings: candidate enzyme calpain 1
# cathepsin D [7] = target: T1, cathepsin D; experiment: as above; assay type: biochemical; settings: candidate enzyme cathepsin D
# T1 sequence (P07339 65-412, species assumed): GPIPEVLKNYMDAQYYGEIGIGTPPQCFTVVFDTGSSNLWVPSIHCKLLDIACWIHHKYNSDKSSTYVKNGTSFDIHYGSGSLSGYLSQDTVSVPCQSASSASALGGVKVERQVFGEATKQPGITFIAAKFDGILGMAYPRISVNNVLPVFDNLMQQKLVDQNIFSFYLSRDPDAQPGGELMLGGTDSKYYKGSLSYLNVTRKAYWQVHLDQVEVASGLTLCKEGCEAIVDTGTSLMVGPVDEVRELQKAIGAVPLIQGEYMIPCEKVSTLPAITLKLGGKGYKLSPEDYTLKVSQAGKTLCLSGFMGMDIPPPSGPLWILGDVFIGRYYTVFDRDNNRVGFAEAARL
smiles,measurement,setting,value
"N[C@@H](Cc1c[nH]cn1)C(=O)O [YK213, Histidine]",tumor-specific fluorescent labeling as compared with the surrounding tissue,[1],fluorescent labeling was performed in a tumor-specific manner
same,fluorescence intensity in the tumor,[1]; FIG. 2,high fluorescence intensity
"N[C@@H](Cc1ccc(O)cc1)C(=O)O [YK19, Tyrosine]",tumor-specific fluorescent labeling as compared with the surrounding tissue,[1],a fluorescent response was also well-obtained in a tumor-specific manner
"N=C(N)NCCC[C@H](N)C(=O)O [YK190, Arginine]",change in fluorescence intensity by reaction with the probe,cathepsin D [2],significant increase in fluorescence intensity
same,change in fluorescence intensity by reaction with the probe,calpain 1 [3],significant increase in fluorescence intensity
same,fluorescence intensity compared to the control U87 cell line,[4],reduced fluorescence intensity
same,fluorescence intensity compared to the control U87 cell line,[5],reduced fluorescence intensity
same,tumor-specific fluorescent labeling as compared with the surrounding tissue,[1],fluorescent labeling was performed in a tumor-specific manner
same,fluorescence intensity in the tumor,[1]; FIG. 2,high fluorescence intensity
same,fluorescence intensity relative to YK213,"[1]; in the tumor, FIG. 2",about two times that of YK213
COCCOCCOC(=O)N[C@@H](CC(C)C)C(=O)N[C@@H](Cc1ccccc1)C(=O)C(=O)NC1CC1 [SNJ-1945],change in fluorescence intensity with inhibitor,calpain 1 [6],fluorescence suppression
same,change in fluorescence intensity with inhibitor,cathepsin D [7],fluorescence suppression
